These results are taken from patent publication US9890407B2, “Method for synthesizing cellulose in vitro” (University of Virginia Patent Foundation, priority 2013, dated 2018).

The assay relates to Rs BcsA-B complex. The experiment in a line: Cellulose synthase sedimentation assay (3H-labeled water-insoluble cellulose, scintillation counting). Type of assay: biochemical, Rhodobacter sphaeroides. To be noted: increasing nucleotide concentrations, 0.5 mM UDP-Glc, PL-reconstituted BcsA-B. As to the method:
(FIG. 4A) Enzyme-coupled cellulose synthesis assays were performed as described in FIG. 3 in the absence or presence of 0.1 mg/ml E. coli BesZ. […] Inset: Radioactive sedimentation assay performed with ND-reconstituted BcsA-B synthesizing cellulose in the absence or presence of BcsZ. […] The obtained product is quantified relative to the polymer formed in the absence of any nucleoside diphosphate.
FIG. 9A-9B (also referred to as Example 1, Supplementary FIG. 3): Cation selectivity and pH optimum of cellulose synthase. (FIG. 9A) Cellulose synthesis reactions were performed in the presence of 20 mM of the indicated cations or in the absence of any additional divalent cations with and without addition of 20 mM EDTA. The activities are shown relative to the activity in the presence of magnesium. […] All activity assays were performed for 45 min at 37° C. with 1 μM PLs-reconstituted. Rs BcsA-B and by quantifying the accumulation of ^3H-labeled water insoluble cellulose as described.
Following incubation at 37° C. for 45 min, the polymerization reaction was terminated by addition of 2% SDS and the water-insoluble polymer was pelleted by centrifugation at 15,000 rpm at room temperature (RT). The obtained pellet was resuspended in 20 μL 50 mM Tris pH 7.5, 0.1 M NaCl and spotted at the origin of a descending Whatman-2MM chromatography paper, which was developed in an aqueous solution of 60% ethanol. For enzymatic degradation, the pellet was resuspended in 20 μL 50 mM sodium acetate pH 4.5 and 100 mM NaCl and was digested with 0.1 mg/ml of endo-β-1,4- or endo-β-1,3 glucanase from Aspergillus niger (TCI) or Trichoderma sp. (Megazyme), respectively. Following paper chromatography, the high molecular weight polymer retained at the origin was quantified by scintillation counting.
Following synthesis, the reactions were treated as described above.

For `Nc1nc2c(ncn2[C@@H]2O[C@H](COP(=O)(O)OP(=O)(O)O)[C@@H](O)[C@H]2O)c(=O)[nH]1` [guanosine-diphosphate], the “inhibition of cellulose synthesis by nucleoside diphosphates” value is “do not inhibit”.
In the case of `Nc1ncnc2c1ncn2[C@@H]1O[C@H](COP(=O)(O)OP(=O)(O)O)[C@@H](O)[C@H]1O` [adenosine-diphosphate], the “inhibition of cellulose synthesis by nucleoside diphosphates” value is recorded as “do not inhibit”.
